Where two headings read alike, the source gives them in different places.
Legend:
IMP-1 = IMP-1 (Serratia marcescens, UniProt P52699); experiment: Enzyme activity: determination of IC50, fluorescence assay with CCF2-FA substrate; assay type: biochemical; conditions: CCF2-FA 1.25 μM, 2 hours at 25° C., read-out: IMP1 IC50
Method in brief: (§1)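 Enzyme at 1 pM (NDM-1), 2 pM (IMP-1) or 30 pM (VIM-1) was incubated with inhibitor (20 μM to 0.00063 μM) and 1.25 μM CCF2-FA in 100 mM KH2PO4 pH 7, 0.005% Tween-20, 10 μM ZnSO4 for 2 hours at 25° C. Fluorescence was read at ex 405/em 460 nm; IC50 from 4-parameter fit.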

VIM-1 = VIM-1 (Pseudomonas aeruginosa, UniProt A0A0F7KYQ8); experiment: as above; assay type: biochemical; conditions: CCF2-FA 1.25 μM, 2 hours at 25° C., read-out: VIM1 IC50
Method in brief: as §1

NDM-1 = NDM-1 (Klebsiella pneumoniae, UniProt C7C422); experiment: as above; assay type: biochemical; conditions: CCF2-FA 1.25 μM, 2 hours at 25° C., read-out: NDM1 IC50
Method in brief: as §1

[1] = system: Escherichia coli expressing NDM-1 (CLB30016); experiment: Antibiotic potentiation activity: synergistic concentration (MITC95) with imipenem, growth by OD600; assay type: cell-based
Method in brief: (§2)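 Colonies from overnight agar plates (35 °C) were suspended in saline and diluted 1:100 into 1.1× CAMHB. Inhibitor (final 200 μM to 0.195 μM) was combined with imipenem at 1 or 4 μg/ml, incubated 22–24 h at 35 °C, and absorbance read; MITC95 is the lowest inhibitor concentration giving 95% growth inhibition.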

[2] = system: Klebsiella pneumoniae expressing VIM-1 (IHMA599644); experiment: as above; assay type: cell-based
Method in brief: as §2

[3] = system: Serratia marcescens expressing IMP-1 (CL5741); experiment: as above; assay type: cell-based
Method in brief: as §2

[4] = E. coli CLB30016 (NDM-1), 95% inhibition of growth
[5] = K. pneumoniae IHMA599644 (VIM-1), 95% inhibition of growth
[6] = S. marcescens CL5741 (IMP-1), 95% inhibition of growth
[7] = 95% inhibition of bacterial growth, strain CLB30016
[8] = 95% inhibition of bacterial growth, strain IHMA599644
[9] = 95% inhibition of bacterial growth, strain CL5741

NDM-1, sequence (C7C422 29-270, looked up, species assumed): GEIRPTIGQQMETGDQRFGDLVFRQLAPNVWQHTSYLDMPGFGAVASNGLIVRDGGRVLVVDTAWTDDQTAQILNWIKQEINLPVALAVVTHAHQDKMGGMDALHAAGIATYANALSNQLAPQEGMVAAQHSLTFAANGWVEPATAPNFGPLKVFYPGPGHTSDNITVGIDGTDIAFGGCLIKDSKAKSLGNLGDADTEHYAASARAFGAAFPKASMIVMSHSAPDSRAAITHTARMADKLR
IMP-1, sequence (P52699 19-246, looked up, species assumed): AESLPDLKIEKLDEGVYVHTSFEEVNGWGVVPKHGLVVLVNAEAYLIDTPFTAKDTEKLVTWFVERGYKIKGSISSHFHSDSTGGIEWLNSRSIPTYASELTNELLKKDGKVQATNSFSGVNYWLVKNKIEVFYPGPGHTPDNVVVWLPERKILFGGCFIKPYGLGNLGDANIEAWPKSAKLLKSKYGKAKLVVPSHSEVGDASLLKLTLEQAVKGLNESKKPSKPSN

Row | Structure (SMILES) | IC50 (IMP-1; IMP-1 enzyme 2 pM) | IC50 (VIM-1; VIM-1 enzyme 30 pM) | IC50 (NDM-1; NDM-1 enzyme 1 pM) | NDM1 EC30016 MITC95 [1, 4] | VIM1 KP599644 MITC95 [2, 5] | IMP1 SM5741 MITC95 [3, 6] | IC50 (IMP-1; enzyme 2 pM) | IC50 (VIM-1; enzyme 30 pM) | IC50 (NDM-1; enzyme 1 pM) | NDM1 EC30016 MITC95 [1, 7] | VIM1 KP599644 MITC95 [2, 8] | IMP1 SM5741 MITC95 [3, 9]
1 | CC(C)C[C@H](C(=O)O)[C@H](Cc1ccc(Oc2cccc(C3CCCNC3)c2)nc1)c1nn[nH]n1 (stereo partly drawn) [Example 382, (2S)-4-methyl-2-[(1S)-2-[6-(3-piperidin-3-ylphenoxy)pyridin-3-yl]-1-(2H-tetrazol-5-yl)ethyl]pentanoic acid] | 170 nM | 34 nM | 140 nM | 12.5 µM | 75 µM | 12.5 µM |  |  |  |  |  | 
2 | CC(C)(C)[C@H](C(=O)O)[C@@H](Cc1cccc2sc(Br)nc12)c1nnn[nH]1 [Example 423, (2R,3R)-4-(2-bromobenzo[d]thiazol-4-yl)-2-(tert-butyl)-3-(1H-tetrazol-5-yl)butanoic acid] | 2.77 nM | 0.989 nM | 1.22 nM | 12.5 µM | 50 µM | 25 µM |  |  |  |  |  | 
3 | O=C(O)[C@@H](C1CCCC1)[C@H](Cc1ccc(C2=CCNC2)cn1)c1nnn[nH]1 [Example 66, (2S,3S)-2-cyclopentyl-4-(5-(2,5-dihydro-1H-pyrrol-3-yl)pyridin-2-yl)-3-(1H-tetrazol-5-yl)butanoic acid] |  |  |  |  |  |  | 6400 nM | 18 nM | 370 nM | 4.7 µM | 12.5 µM | 75 µM
4 | CC(C)C[C@H](C(=O)O)[C@H](Cc1ccc(-c2ccc(S(N)(=O)=O)cc2)cn1)c1nn[nH]n1 [Example 175, (2S)-4-methyl-2-[(1S)-2-[5-(4-sulfamoylphenyl)pyridin-2-yl]-1-(2H-tetrazol-5-yl)ethyl]pentanoic acid] |  |  |  |  |  |  | 840 nM | 12 nM | 19 nM | 18.8 µM | 50 µM | 75 µM
5 | CCC[C@H](C(=O)O)[C@H](Cc1ccc(C2CCN(C=N)CC2)nc1)c1nnn[nH]1 [Example 299, (S)-2-((S)-2-(6-(1-(iminomethyl)piperidin-4-yl)pyridin-3-yl)-1-(1H-tetrazol-5-yl)ethyl)pentanoic acid] | 4400 nM | 22 nM | 220 nM | 1.6 µM | 25 µM | 50 µM |  |  |  |  |  | 
6 | CC(C)C[C@H](C(=O)O)[C@H](Cc1ccc2ncc(N)cc2c1)c1nnn[nH]1 [Example 119, (S)-2-((S)-2-(3-aminoquinolin-6-yl)-1-(1H-tetrazol-5-yl)ethyl)-4-methylpentanoic acid] |  |  |  |  |  |  | 52 nM | 1 nM | 12 nM | 9.4 µM | 25 µM | 3.1 µM
7 | CC(C)C[C@H](C(=O)O)[C@H](Cc1ccc(NC2CNCc3ccccc32)nc1)c1nnn[nH]1 (stereo partly drawn) [Example 319, (2S)-4-methyl-2-[(1S)-2-[6-(1,2,3,4-tetrahydroisoquinolin-4-ylamino)pyridin-3-yl]-1-(1H-tetrazol-5-yl)ethyl]pentanoic acid] | 1000 nM | 13 nM | 350 nM | 12.5 µM | 25 µM | 18.8 µM |  |  |  |  |  | 
8 | CC(C)[C@H](C(=O)O)[C@H](Cc1ccc(C2CCNC2)cc1)c1nnn[nH]1 (stereo partly drawn) [Example 78, (2S,3S)-2-isopropyl-4-(4-(pyrrolidin-3-yl)phenyl)-3-(1H-tetrazol-5-yl)butanoic acid] |  |  |  |  |  |  | 460 nM | 4.5 nM | 23 nM | 3.1 µM | 6.2 µM | 6.2 µM
9 | CC(C)C[C@H](C(=O)O)[C@H](Cc1ccc(CN(C)C)c(F)c1)c1nn[nH]n1.O=C(O)C(F)(F)F [Example 443, 1-(4-((2S,3S)-3-carboxy-5-methyl-2-(2H-tetrazol-5-yl)hexyl)-2-fluorophenyl)-N,N-dimethylmethanaminium 2,2,2-trifluoroacetate] | 1060 nM | 4.29 nM | 298 nM | 12.5 µM | 25 µM | 37.5 µM |  |  |  |  |  | 
10 | CCC[C@H](C(=O)O)[C@H](Cc1cccc(N2CC[C@@H](N)C2)c1)c1nn[nH]n1 [Example 364, (2S)-2-[(1S)-2-{3-[(3R)-3-aminopyrrolidin-1-yl]phenyl}-1-(2H-tetrazol-5-yl)ethyl]pentanoic acid] | 1600 nM | 2.4 nM | 110 nM | 9.4 µM | 12.5 µM | 38 µM |  |  |  |  |  | 
11 | CCC[C@H](C(=O)O)[C@H](Cc1ccccc1-c1ccncc1)c1nn[nH]n1 [Example 397, (2S)-2-[(1S)-2-(2-pyridin-4-ylphenyl)-1-(2H-tetrazol-5-yl)ethyl]pentanoic acid] | 5000 nM | 16 nM | 13 nM | 6.2 µM | 75 µM | 200 µM |  |  |  |  |  | 
12 | CCC[C@H](C(=O)O)[C@H](Cc1ccc(-c2cnc(N(C)C)nc2)nc1)c1nnn[nH]1 [Example 163, (2S)-2-[(1S)-2-{6-[2-(dimethylamino)pyrimidin-5-yl]pyridin-3-yl}-1-(1H-tetrazol-5-yl)ethyl]pentanoic acid] |  |  |  |  |  |  | 600 nM | 3.8 nM | 25 nM | 38 µM | 125 µM | 16 µM
13 | CCC[C@H](C(=O)O)[C@H](Cc1ccc(NC(C)CN)cc1)c1nn[nH]n1 (stereo partly drawn) [Example 222, (2S)-2-[(1S)-2-{4-[(2-amino-1-methylethyl)amino]phenyl}-1-(2H-tetrazol-5-yl)ethyl]pentanoic acid] |  |  |  |  |  |  | 1700 nM | 9.1 nM | 710 nM | 18.8 µM | 25 µM | 25 µM
14 | CC(=O)N1CCC(C[C@H](c2nnn[nH]2)[C@@H](C(=O)O)C(C)C)CC1 [Example 90, (2S,3S)-4-(1-acetylpiperidin-4-yl)-2-isopropyl-3-(1H-tetrazol-5-yl)butanoic acid] |  |  |  |  |  |  | 14000 nM | 310 nM | 200 nM | 62 µM | 200 µM | >200 µM
15 | CC(C)[C@H](C(=O)O)[C@H](Cc1ccc(-c2cnc(NCCO)nc2)cc1)c1nnn[nH]1 [Example 77, (2S,3S)-4-(4-(2-((2-hydroxyethyl)amino)pyrimidin-5-yl)phenyl)-2-isopropyl-3-(1H-tetrazol-5-yl)butanoic acid] |  |  |  |  |  |  | 99 nM | 5.7 nM | 6.1 nM | 6.2 µM | 50 µM | 4.7 µM
16 | CCC[C@H](C(=O)O)[C@H](Cc1ccc(C2CCN(C(=N)N)CC2)nc1)c1nnn[nH]1 [Example 298, (S)-2-((S)-2-(6-(1-carbamimidoylpiperidin-4-yl)pyridin-3-yl)-1-(1H-tetrazol-5-yl)ethyl)pentanoic acid] | 2700 nM | 10 nM | 110 nM | 1.6 µM | 12.5 µM | 25 µM |  |  |  |  |  | 
17 | CCC[C@H](C(=O)O)[C@H](Cc1ccc(Oc2ccc(CN)cc2)nc1)c1nnn[nH]1 [Example 131, (S)-2-((S)-2-(6-(4-(aminomethyl)phenoxy)pyridin-3-yl)-1-(1H-tetrazol-5-yl)ethyl)pentanoic acid] |  |  |  |  |  |  | 200 nM | 1.9 nM | 12 nM | 0.78 µM | 9.4 µM | 6.2 µM
18 | CCC[C@H](C(=O)O)[C@H](Cc1cccc(-c2ccnc(N3CCNCC3)c2)c1)c1nn[nH]n1 [Example 340, (2S)-2-[(1S)-2-[3-(2-piperazin-1-ylpyridin-4-yl)phenyl]-1-(2H-tetrazol-5-yl)ethyl]pentanoic acid] | 180 nM | 3.5 nM | 46 nM | 38 µM | 50 µM | 4.7 µM |  |  |  |  |  | 
19 | CC(C)(C)[C@H](C(=O)O)[C@H](Cc1ccccc1)c1nnn[nH]1 [Example 258, (2R,3S)-2-(tert-butyl)-4-phenyl-3-(1H-tetrazol-5-yl)butanoic acid] | 35 nM | 100 nM | 91 nM | 11 µM | 100 µM | 2.3 µM |  |  |  |  |  | 

Reference: patent US9839642B2, “Beta-tetrazolyl-propionic acids as metallo-beta-lactamase inhibitors” (priority 2014, dated 2017)
